Data from the NIST ThermoML archive (doi:10.1016/j.jct.2012.10.023).

Experiments:
[1] = 101.33 kPa, Liquid; for speed of sound: Sing-around technique in a fixed-path interferometer; for mass density: Vibrating tube method
[2] = xn = mol fraction of the nth substance listed; conditions: 101 kPa, Liquid; for speed of sound: Sing-around technique in a fixed-path interferometer; for mass density: Vibrating tube method

Cc1cccc(C)c1 [1,3-dimethylbenzene]
[1]
Conditions | mass density [kg/m3] | speed of sound [m/s]
298.15 K | 859.867 | 1320.1
308.15 K | 851.236 | 1279.1

CCCCCCCCCO [nonan-1-ol] + Cc1ccccc1C
[2]
Conditions | mass density, 298.15 K [kg/m3] | mass density, 308.15 K [kg/m3] | speed of sound, 298.15 K [m/s] | speed of sound, 308.15 K [m/s]
x2 = 0 | 824.271 | 817.362 | 1363.1 | 1330.4
x2 = 0.0653 | 826.644 | 819.637 | 1361.7 | 1328.2
x2 = 0.136 | 829.283 | 822.169 | 1359.7 | 1325.5
x2 = 0.1773 | 830.871 | 823.694 | 1358.3 | 1323.7
x2 = 0.2281 | 832.869 | 825.612 | 1356.5 | 1321.4
x2 = 0.2834 | 835.111 | 827.766 | 1354.3 | 1318.8
x2 = 0.3463 | 837.756 | 830.309 | 1351.8 | 1315.8
x2 = 0.4203 | 841.015 | 833.448 | 1348.8 | 1312.5
x2 = 0.4761 | 843.593 | 835.935 | 1346.7 | 1310
x2 = 0.5478 | 847.079 | 839.304 | 1344.3 | 1307.3
x2 = 0.6327 | 851.482 | 843.569 | 1342.2 | 1304.7
x2 = 0.7121 | 855.922 | 847.884 | 1341.1 | 1303
x2 = 0.7974 | 861.062 | 852.892 | 1341 | 1302.3
x2 = 0.8695 | 865.751 | 857.475 | 1342.1 | 1302.8
x2 = 0.9287 | 869.902 | 861.543 | 1344 | 1304.3

CCCCCCCCCO [nonan-1-ol]
[1]
Conditions | mass density [kg/m3] | speed of sound [m/s]
298.15 K | 824.271 | 1363.1
308.15 K | 817.362 | 1330.4

Cc1ccc(C)cc1 [1,4-dimethylbenzene]
[1]
Conditions | mass density [kg/m3] | speed of sound [m/s]
298.15 K | 856.609 | 1309.5
308.15 K | 847.881 | 1268.6

CCCCCCCCCO [nonan-1-ol] + Cc1cccc(C)c1
[2]
Conditions | mass density, 298.15 K [kg/m3] | mass density, 308.15 K [kg/m3] | speed of sound, 298.15 K [m/s] | speed of sound, 308.15 K [m/s]
x2 = 0 | 824.271 | 817.362 | 1363.1 | 1330.4
x2 = 0.066 | 826.04 | 819.011 | 1360.2 | 1326.5
x2 = 0.127 | 827.699 | 820.562 | 1357 | 1322.5
x2 = 0.1739 | 828.993 | 821.778 | 1354.2 | 1319.2
x2 = 0.2461 | 831.027 | 823.695 | 1349.4 | 1313.9
x2 = 0.2913 | 832.335 | 824.932 | 1346.4 | 1310.4
x2 = 0.3635 | 834.482 | 826.964 | 1341.4 | 1304.8
x2 = 0.4422 | 836.925 | 829.276 | 1335.9 | 1298.9
x2 = 0.4872 | 838.383 | 830.658 | 1332.9 | 1295.5
x2 = 0.5648 | 841.002 | 833.142 | 1328.2 | 1290.1
x2 = 0.6251 | 843.155 | 835.189 | 1324.7 | 1286.3
x2 = 0.6873 | 845.49 | 837.419 | 1321.9 | 1283
x2 = 0.7713 | 848.867 | 840.659 | 1319 | 1279.5
x2 = 0.8508 | 852.346 | 843.997 | 1317.8 | 1277.7
x2 = 0.9284 | 856.073 | 847.58 | 1318 | 1277.6

CCCCCCCCCO [nonan-1-ol] + Cc1ccc(C)cc1
[2]
Conditions | mass density, 298.15 K [kg/m3] | mass density, 308.15 K [kg/m3] | speed of sound, 298.15 K [m/s] | speed of sound, 308.15 K [m/s]
x2 = 0 | 824.271 | 817.362 | 1363.1 | 1330.4
x2 = 0.0611 | 825.819 | 818.805 | 1360.1 | 1326.3
x2 = 0.1108 | 827.09 | 819.99 | 1357.1 | 1322.6
x2 = 0.1652 | 828.491 | 821.297 | 1353.4 | 1318.2
x2 = 0.226 | 830.074 | 822.774 | 1349 | 1313.3
x2 = 0.2932 | 831.854 | 824.435 | 1343.9 | 1307.5
x2 = 0.3651 | 833.819 | 826.271 | 1338.4 | 1301.2
x2 = 0.4248 | 835.506 | 827.851 | 1333.5 | 1296.1
x2 = 0.5023 | 837.784 | 829.988 | 1327.5 | 1289.7
x2 = 0.558 | 839.499 | 831.601 | 1323.3 | 1285.2
x2 = 0.6359 | 842.032 | 833.99 | 1318.1 | 1279.6
x2 = 0.7123 | 844.678 | 836.494 | 1313.8 | 1274.8
x2 = 0.7744 | 846.969 | 838.668 | 1311 | 1271.7
x2 = 0.8514 | 850.015 | 841.569 | 1308.9 | 1269
x2 = 0.9286 | 853.306 | 844.715 | 1308 | 1268

CCc1ccccc1 [ethylbenzene]
[1]
Conditions | mass density [kg/m3] | speed of sound [m/s]
298.15 K | 862.433 | 1318.6
308.15 K | 853.607 | 1277.5

Cc1cc(C)cc(C)c1 [1,3,5-trimethylbenzene] + CCCCCCCCCO
[2], x1 = 1
Conditions | mass density [kg/m3] | speed of sound [m/s]
298.15 K | 860.862 | 1336
308.15 K | 852.659 | 1296.3

CCCCCCCCCO [nonan-1-ol] + Cc1cc(C)cc(C)c1
[2]
Conditions | mass density, 298.15 K [kg/m3] | mass density, 308.15 K [kg/m3] | speed of sound, 298.15 K [m/s] | speed of sound, 308.15 K [m/s]
x2 = 0 | 824.271 | 817.362 | 1363.1 | 1330.4
x2 = 0.0696 | 826.211 | 819.181 | 1360.9 | 1327.3
x2 = 0.1267 | 827.826 | 820.708 | 1358.8 | 1324.6
x2 = 0.195 | 829.792 | 822.576 | 1356 | 1321
x2 = 0.2375 | 831.043 | 823.768 | 1354 | 1318.6
x2 = 0.3044 | 833.053 | 825.691 | 1350.8 | 1314.8
x2 = 0.362 | 834.839 | 827.405 | 1347.8 | 1311.4
x2 = 0.4358 | 837.211 | 829.683 | 1344.1 | 1307.4
x2 = 0.5112 | 839.754 | 832.121 | 1340.5 | 1303.3
x2 = 0.5777 | 842.112 | 834.381 | 1337.5 | 1300
x2 = 0.6422 | 844.512 | 836.681 | 1335.2 | 1297.5
x2 = 0.7091 | 847.143 | 839.209 | 1333.3 | 1295.2
x2 = 0.7788 | 850.052 | 841.998 | 1332.4 | 1293.7
x2 = 0.8571 | 853.546 | 845.418 | 1332.4 | 1293.1
x2 = 0.9234 | 856.701 | 848.558 | 1333.4 | 1293.8

Cc1ccccc1C [1,2-dimethylbenzene] + CCCCCCCCCO
[2], x1 = 1
Conditions | mass density [kg/m3] | speed of sound [m/s]
298.15 K | 875.363 | 1348.2
308.15 K | 866.507 | 1308.2

Cc1cc(C)cc(C)c1 [1,3,5-trimethylbenzene]
[1]
Conditions | mass density [kg/m3] | speed of sound [m/s]
298.15 K | 860.862 | 1336
308.15 K | 852.659 | 1296.3

CCCCCCCCCO [nonan-1-ol] + CCc1ccccc1
[2]
Conditions | mass density, 298.15 K [kg/m3] | mass density, 308.15 K [kg/m3] | speed of sound, 298.15 K [m/s] | speed of sound, 308.15 K [m/s]
x2 = 0 | 824.271 | 817.362 | 1363.1 | 1330.4
x2 = 0.0611 | 825.837 | 818.832 | 1359.7 | 1326.2
x2 = 0.1285 | 827.606 | 820.495 | 1355.8 | 1321.2
x2 = 0.1791 | 828.979 | 821.784 | 1352.3 | 1317.2
x2 = 0.2466 | 830.861 | 823.552 | 1347.6 | 1312
x2 = 0.3151 | 832.863 | 825.431 | 1342.6 | 1306.5
x2 = 0.3717 | 834.594 | 827.054 | 1338.4 | 1301.9
x2 = 0.4254 | 836.312 | 828.667 | 1334.5 | 1297.6
x2 = 0.5007 | 838.858 | 831.059 | 1329.2 | 1291.8
x2 = 0.5756 | 841.598 | 833.621 | 1324.6 | 1286.4
x2 = 0.6411 | 844.187 | 836.032 | 1321 | 1282.3
x2 = 0.7122 | 847.192 | 838.876 | 1318 | 1278.8
x2 = 0.7798 | 850.293 | 841.821 | 1316 | 1276.2
x2 = 0.8557 | 854.062 | 845.455 | 1315.2 | 1275
x2 = 0.9341 | 858.405 | 849.669 | 1316.3 | 1274.9

Cc1ccccc1C [1,2-dimethylbenzene]
[1]
Conditions | mass density [kg/m3] | speed of sound [m/s]
298.15 K | 875.363 | 1348.2
308.15 K | 866.507 | 1308.2

Cc1cccc(C)c1 [1,3-dimethylbenzene] + CCCCCCCCCO
[2], x1 = 1
Conditions | mass density [kg/m3] | speed of sound [m/s]
298.15 K | 859.867 | 1320.1
308.15 K | 851.236 | 1279.1

CCc1ccccc1 [ethylbenzene] + CCCCCCCCCO
[2], x1 = 1
Conditions | mass density [kg/m3] | speed of sound [m/s]
298.15 K | 862.433 | 1318.6
308.15 K | 853.607 | 1277.5

Cc1ccc(C)cc1 [1,4-dimethylbenzene] + CCCCCCCCCO
[2], x1 = 1
Conditions | mass density [kg/m3] | speed of sound [m/s]
298.15 K | 856.609 | 1309.5
308.15 K | 847.881 | 1268.6
